According to patent US12442035B2, “Compositions and methods for detecting antibiotic responsive mRNA expression signatures and uses thereof” (THE BROAD INSTITUTE, INC., priority 2018, dated 2025):
≈ marks a conversion by molar mass, not a printed value. Entries after “also recorded” stand apart in the source; their conditions may differ. Like-named read-outs stand apart in the source and are kept apart here.

Tests used:
[1] = system: S. aureus clinical isolates; assay: Standard broth microdilution MIC; type: cell-based; settings: Staphylococcus aureus, read-out: levo MIC
Excerpt: (§3) All strains in this study (Table 7) were obtained from clinical or reference microbiological laboratories, including both local hospitals and MDRO strain collections from the Centers for Disease Control's Antibiotic Resistance Isolate Bank (see e.g., World Wide Web at (www).cdc.gov/ARIsolateBank/) and the New York State Department of Health.

[2] = system: E. coli clinical isolates; assay: Standard broth microdilution MIC; type: cell-based, Escherichia coli; settings: for MIC: Escherichia coli
Excerpt: as §3

[3] = system: K. pneumoniae clinical isolates; assay: Standard broth microdilution MIC; type: cell-based, Klebsiella pneumoniae
Excerpt: as §3

[4] = system: A. baumannii clinical isolates; assay: RNA-Seq transcriptional response to antibiotic exposure, GO term enrichment; type: cell-based, Acinetobacter baumannii; settings: CLSI breakpoint concentration, 0, 10, 30, 60 minutes
Excerpt: (§1) Fisher's combined probability test was used to select only those genes whose expression after antibiotic treatment was statistically distinguishable from its expression at any timepoint in the untreated samples. Gene ontology (GO) terms were assigned using blast2GO (version 1.4.4), with hypergeometric testing for enrichment. For each pathogen-antibiotic pair, the fold-change threshold in DESeq2 used to test statistical significance was increased to select 60-100 antibiotic-responsive transcripts with maximal stringency, a number readily accommodated by the NanoString® assay format. […] As with responsive genes, the fold-change threshold was varied in order to select the top 10-20 control transcripts. […] See Supplemental Methods sections below for further details.
(§2) After antibiotic treatment as described in the above Materials and Methods section, cells were pelleted, resuspended in 0.5 mL Trizol reagent (ThermoFisher Scientific), transferred to 1.5 mL screw-cap tubes containing 0.25 mL of 0.1 mm diameter Zirconia/Silica beads (BioSpec Products), and lysed mechanically via bead-beating for 3-5 one-minute cycles on a Minibeadbeater-16 (BioSpec) or one 90-second cycle at 10 m/sec on a FastPrep (MP Bio). After addition of 0.1 mL chloroform, each sample tube was mixed thoroughly by inversion, incubated for 3 minutes at room temperature, and centrifuged at 12,000×g for 15 minutes at 4° C. […]

[5] = system: E. coli clinical isolates; assay: as above; type: cell-based, Escherichia coli; settings: CLSI breakpoint concentration, 0, 10, 30, 60 minutes
[6] = system: K. pneumoniae clinical isolates; assay: as above; type: cell-based, Klebsiella pneumoniae; settings: CLSI breakpoint concentration, 0, 10, 30, 60 minutes
Excerpt: as §1, §2

SMILES: C[C@H]1COc2c(N3CCN(C)CC3)c(F)cc3c(=O)c(C(=O)O)cn1c23 [levofloxacin]
- MIC ([1]; S. aureus strain RB003): 0.125 µg/mL (≈ 0.346 µM)
- MIC ([1]; S. aureus strain RB004): 32 µg/mL (≈ 88.6 µM)
- MIC ([1]; S. aureus strain RB006): 0.06 µg/mL (≈ 0.166 µM)
- MIC ([1]; S. aureus strain RB007): 16 µg/mL (≈ 44.3 µM)
- MIC ([1]; S. aureus strain RB010): > 32 µg/mL
- MIC ([1]; S. aureus strain RB045): 32 µg/mL (≈ 88.6 µM)
- MIC ([1]; S. aureus strain RB047): > 32 µg/mL
- MIC ([1]; S. aureus strain RB064): 8 µg/mL (≈ 22.1 µM)
- MIC ([1]; S. aureus strain RB065): 0.06 µg/mL (≈ 0.166 µM)
- MIC ([1]; S. aureus strain RB066): 0.06 µg/mL (≈ 0.166 µM)
- MIC ([1]; S. aureus strain RB067): 0.13 µg/mL (≈ 0.36 µM)
- MIC ([1]; S. aureus strain RB0069): 0.13 µg/mL (≈ 0.36 µM)
- MIC ([1]; S. aureus strain RB072): 4 µg/mL (≈ 11.1 µM)
- MIC ([1]; S. aureus strain RB074): 32 µg/mL (≈ 88.6 µM)
- MIC ([1]; S. aureus strain RB090): 32 µg/mL (≈ 88.6 µM)
- MIC ([1]; S. aureus strain RB095): 32 µg/mL (≈ 88.6 µM)
- MIC ([1]; S. aureus strain RB096): 0.13 µg/mL (≈ 0.36 µM)
- MIC ([1]; S. aureus strain RB098): 0.13 µg/mL (≈ 0.36 µM)
- MIC ([1]; S. aureus strain RB211): 16 µg/mL (≈ 44.3 µM)
- MIC ([1]; S. aureus strain RB219): 32 µg/mL (≈ 88.6 µM)
- MIC ([1]; S. aureus strain RB221): 0.13 µg/mL (≈ 0.36 µM)
- MIC ([1]; S. aureus strain RB223): 0.13 µg/mL (≈ 0.36 µM)
- MIC ([1]; S. aureus strain RB245): 0.25 µg/mL (≈ 0.692 µM)
- MIC ([1]; S. aureus strain RB247): 0.5 µg/mL (≈ 1.38 µM)

SMILES: C[C@@H](O)[C@H]1C(=O)N2C(C(=O)O)=C(S[C@@H]3CN[C@H](C(=O)N(C)C)C3)[C@H](C)[C@H]12 [mero]
- mero MIC ([2]; EcMero strain AR0048): 32 mg/L
- mero MIC ([2]; EcMero strain AR0055): 8 mg/L
- mero MIC ([2]; EcMero strain AR0058): 0.25 mg/L
- mero MIC ([2]; EcMero strain AR0061): 8 mg/L
- mero MIC ([2]; EcMero strain AR0069): 16 mg/L
- mero MIC ([2]; EcMero strain AR0077): 0.5 mg/L
- mero MIC ([2]; EcMero strain AR0089): 0.5 mg/L
- mero MIC ([2]; EcMero strain AR0104, value marked *): 1* mg/L
- mero MIC ([2]; EcMero strain BAA2469): 16 mg/L
- mero MIC ([2]; EcMero strain BAA2523 (RB553), value marked *): 0.5* mg/L
- mero MIC ([2]; EcMero strain BIDMC_77): 0.5 mg/L
- mero MIC ([2]; EcMero strain IDR1200024571): >32 mg/L
- mero MIC ([2]; EcMero strain IDR1200039757): >32 mg/L
- mero MIC ([2]; EcMero strain IDR1300027657): 1 mg/L
- mero MIC ([2]; EcMero strain IDR1600029769): 8 mg/L
- mero MIC ([2]; EcMero strain IDR1600035372): 0.5 mg/L
- mero MIC ([3]; KpMero strain AR0034): 2 mg/L
- mero MIC ([3]; KpMero strain AR0040): >32 mg/L
- mero MIC ([3]; KpMero strain AR0041): 16 mg/L
- mero MIC ([3]; KpMero strain AR0042): <0.5 mg/L
- mero MIC ([3]; KpMero strain AR0043): 2 mg/L
- mero MIC ([3]; KpMero strain AR0044): 4 mg/L
- mero MIC ([3]; KpMero strain AR0047): 4 mg/L
- mero MIC ([3]; KpMero strain AR0075): 8 mg/L
- mero MIC ([3]; KpMero strain AR0087): 1 mg/L
- mero MIC ([3]; KpMero strain AR0135): 8 mg/L
- mero MIC ([3]; KpMero strain AR0139): 32 mg/L
- mero MIC ([3]; KpMero strain BAA2524 (RB554), value marked *): 0.5* mg/L
- mero MIC ([3]; KpMero strain BIDMC_14): 16 mg/L
- mero MIC ([3]; KpMero strain BIDMC_22): 0.25 mg/L
- mero MIC ([3]; KpMero strain BIDMC_31): 0.125 mg/L
- mero MIC ([3]; KpMero strain BIDMC_35): >32 mg/L
- mero MIC ([3]; KpMero strain BIT-03): 8 mg/L
- mero MIC ([3]; KpMero strain BIT-04): 32 mg/L
- mero MIC ([3]; KpMero strain BIT-05): >32 mg/L
- mero MIC ([3]; KpMero strain BIT-12): <0.5 mg/L
- mero MIC ([3]; KpMero strain BIT-16): ≤0.5 mg/L
- mero MIC ([3]; KpMero strain BWH_2): 16 mg/L
- mero MIC ([3]; KpMero strain BWH_15): 8 mg/L
- mero MIC ([3]; KpMero strain BWH_30): ≤0.5 mg/L
- mero MIC ([3]; KpMero strain BWH_36): 16 mg/L
- mero MIC ([3]; KpMero strain CDC_1500610): ≤0.5 mg/L
- mero MIC ([3]; KpMero strain IDR1200023303): >32 mg/L
- mero MIC ([3]; KpMero strain IDR1600031102-01-00): >32 mg/L
- mero MIC ([3]; KpMero strain IDR1600037310): 1 mg/L
- mero MIC ([3]; KpMero strain IDR1600057468-01-00): 4 mg/L
- mero MIC ([3]; KpMero strain MGH_17): ≤0.5 mg/L
- mero MIC ([3]; KpMero strain MGH_18): ≤0.5 mg/L
- mero MIC ([3]; KpMero strain MGH_19): ≤0.5 mg/L
- mero MIC ([3]; KpMero strain MGH_20): ≤0.5 mg/L
- mero MIC ([3]; KpMero strain MGH_31): 8 mg/L
- mero MIC ([3]; KpMero strain MGH_35): 2 mg/L
- mero MIC ([3]; KpMero strain MGH_36): ≤0.5 mg/L
- mero MIC ([3]; KpMero strain MGH_39): 2 mg/L
- mero MIC ([3]; KpMero strain MGH_48): ≤0.5 mg/L
- mero MIC ([3]; KpMero strain MGH_71): 32 mg/L
- mero MIC ([3]; KpMero strain RB039): ≤0.5 mg/L
- mero MIC ([3]; KpMero strain RB041): ≤0.5 mg/L
- mero MIC ([3]; KpMero strain RB042): ≤0.5 mg/L
- mero MIC ([3]; KpMero strain UCI_7): 0.25 mg/L
- mero MIC ([3]; KpMero strain UCI_19): >32 mg/L
- mero MIC ([3]; KpMero strain UCI_37): 32 mg/L
- mero MIC ([3]; KpMero strain UCI_38): ≤0.5 mg/L
- mero MIC ([3]; KpMero strain UCI_44): 0.25 mg/L
- mero MIC ([3]; KpMero strain UCI_61): 32 mg/L
- mero MIC ([3]; KpMero strain UCI_64): 0.25 mg/L

SMILES: C[C@@H](O)[C@H]1C(=O)N2C(C(=O)O)=C(S[C@@H]3CN[C@H](C(=O)N(C)C)C3)[C@H](C)[C@H]12 [meropenem]
- Gene ontology enrichment of antibiotic-responsive transcripts [4]: induced a heat shock response
- MIC ([2]; BAA2523, E. coli BAA2523 (blaOXA-48), inoculum of 10^7 cfu/mL): ≥ 32 µg/mL
- MIC ([2]; BAA2523, E. coli BAA2523 (blaOXA-48), standard broth microdilution, inoculum of 10^5 cfu/mL): 0.5 to 1 µg/mL (≈ 1.3 to 2.61 µM)
- MIC ([2]; E. coli AR0104 (blaKPC-4), inoculum of 10^7 cfu/mL): ≥ 32 µg/mL
- MIC ([2]; E. coli AR0104 (blaKPC-4), standard broth microdilution, inoculum of 10^5 cfu/mL): 0.5 to 1 µg/mL (≈ 1.3 to 2.61 µM)
- Gene ontology enrichment of antibiotic-responsive transcripts [5]: affected lipopolysaccharide biosynthesis; also recorded: induced a heat shock response
- Gene ontology enrichment of antibiotic-responsive transcripts [6]: affected lipopolysaccharide biosynthesis
